Assay results published in article doi:10.1101/2021.12.13.472350v1, “An amphipathic and cationic antimicrobial peptide kills colistin resistant Gram-negative pathogens in vivo” (bioRxiv, 2021).
In brackets after ≈: the same amount, converted by molar mass.

Columns and labels:
E. coli ATCC25922 = test: Live/Dead staining and phase contrast microscopy; format: cell-based; settings: 5xMIC, first 30 min of treatment, OD600 = 0.1
Method: Exponentially growing E. coli ATCC25922 were treated for 30 min with either colistin (5xMIC) or ChIP (5xMIC) at OD600 = 0.1. An untreated culture was used as a control. 20 ml of treated or untreated culture was concentrated by centrifugation at 5,000 × g for 10 minutes, washed and re-suspended in 10 ml 0.9% NaCl. All samples were incubated at room temperature for 1 hour, mixing every 15 minutes, before washing twice with 10 ml 0.9% NaCl. After washing, the samples were re-suspended in 5 ml 0.9% NaCl, except for ChIP treated samples that were suspended in 1 ml 0.9% NaCl. Sample staining was performed according to the manufacturers instruction (LIVE/DEAD(tm) BacLight(tm) Bacterial Viability Kit, for microscopy & quantitative assays), and incubated for 15 minutes in the dark. 5 μl of the bacterial suspension was placed on an agar pad and analyzed by fluorescence microscopy using an AxioImager Z1 microscope (Carl Zeiss MicroImaging, Inc), with a × 100 objective and a Hamamatsu ORCA-ER C4742-80-12AG camera.

E. coli MG1655 = test: Macromolecular incorporation assay; format: cell-based; settings: 10xMIC, high cell density (OD600 = 0.1, approximately 1×10^8 CFU/ml), AB minimal medium
Method: Bacteria were grown in cation adjusted Müller-Hinton broth (MHB-II; Sigma-Aldrich) for MIC or Luria-Bertani (LB) broth at 37°C, supplemented with relevant antibiotics when required. For macromolecular incorporation measurements cells were grown in AB minimal medium ([65]) supplemented with 10 μg/ml thiamine and 0.2% glucose without Cas amino acids. Except for glucosamine incorporation where 0.2% glycerol was used as carbon source. Growth rate of the mcr-1 carrying BW25113 strain was determined in MHB-II on exponentially growing cells by measuring OD600 over time.
Macromolecular synthesis was determined by incorporation of […], 3H-arginine or 3H-glucosamine into DNA, RNA, proteins and cell wall respectively, as described previously ([66]). Briefly, 500 µl samples of exponentially growing MG1655 cells were incubated with 0.375 µCi of the relevant precursor for 2 minutes (uridine), 4 minutes (thymidine and arginine), and 20 minutes (glucosamine). Reactions were stopped by adding 5 ml of ice-cold 5% TCA containing 0.1 M NaCl. Samples were filtered (ADVANTEC®, 25mm, lot no: 80302708) washed twice and dried overnight in scintillation vials (PV1AS, MERIDIAN, BIOTECHNOLOGIES Ltd) before counting on a HINDEX 300SL in 5 ml of scintillation fluid (Scintillation fluid, ULTIMA GOLD™, Perkin Elmer, Inc. LOT No.: 77-18151).

[1] = system: Acinetobacter baumannii ATCC 19606; settings: ATCC 19606, reference strain; MHB-II, 37°C, ~5×10^5 CFU/ml, triplicate
HeLa cells = settings: ChIP concentrations of 40 µg/ml and above, 24 hours, DMEM without serum, Trypan Blue, triplicate
Method: HeLa cells were cultured in Dulbecco’s Modified Eagles Medium (DMEM) (Sigma) supplemented with 10% fetal calf serum (Sigma) and 2 mM glutamine at 37°C in a humid incubator with 5% CO2. Cell survival after 24 hours with various amounts of ChIP in DMEM without serum was determined by staining with Trypan Blue Stain (Gibco/Life Technologies). Experiments were performed in triplicate.

[2] = system: Klebsiella pneumoniae ATCC 700603; settings: ATCC 700603, SHV-18, mucoid; MHB-II, 37°C, ~5×10^5 CFU/ml, triplicate

`CC[C@@H](C)[C@@H](NC(=O)[C@@H](CCCCN)NC(=O)[C@@H](CCCCN)NC(=O)[C@@H](Cc1ccccc1)NC(=O)[C@@H](CC(C)C)NC(=O)[C@@H](CCCCN)NC(=O)[C@H](N)CCCCN)C(=O)N[C@H](CC(C)C)C(=O)N[C@H](CCCNC(=N)N)C(=O)N[C@H](Cc1ccc(O)cc1)C(=O)N[C@H](CC(C)C)C(N)=O` [ChIP] was tested, and the “viability and lysis (SYTO9 / propidium iodide, phase contrast)” value (E. coli ATCC25922) was “loss of viability, but without lysis”, the “incorporation of radioactive labelled precursors into DNA, RNA, protein and peptidoglycan” value (E. coli MG1655) was “blocked incorporation” and the MIC [1] was 8 µg/mL (≈ 5.52 µM). For the same compound, the HeLa cell survival (HeLa cells) was “greatly reduced survival” and the MIC [2] was 8 µg/mL (≈ 5.52 µM).
